Activity, inhibition in vivo and IC50 data for three compounds are collected here from ChEMBL document CHEMBL6109101, “Synthesis and bioactivity of cyclic peptide GG-8-6 analogues as anti-hepatocellular carcinoma agents” (Eur J Med Chem, 2025).

Data set [1] deals with HCCLM3. The data set can be described thus: Cytotoxicity against human HCCLM3 cells assessed as cell viability incubated at 12 to 48 hrs hrs by MTT assay. It is filed as functional, cell-based. Particulars: dose <= 40.0 µM, time 12-48 hrs. In general terms: Formazan colour is commonly taken as a measure of viable cells.
Data set [2] has as its system HCCLM3. The data set can be described thus: Cytotoxicity against human HCCLM3 cells assessed as cell viability up to 40 uM measured at 24 to 48 hrs by MTT assay. It counts as functional, cell-based. As to conditions: time 24-48 hrs.
Data set [3] concerns MHCC97H. As to the kind of experiment: Cytotoxicity against human MHCC97H cells assessed as cell viability incubated at 12 to 48 hrs hrs by MTT assay. It counts as functional, cell-based. Particulars: dose <= 40.0 µM, time 12-48 hrs.
Data set [4] deals with MHCC97H. The data set can be described thus: Cytotoxicity against human MHCC97H cells assessed as reduction in cell viability at 40 uM measured at 48 hrs by MTT assay. It is filed as functional, cell-based.
Data set [5] has as its system MHCC97H. As to the kind of experiment: Cytotoxicity against human MHCC97H cells assessed as cell viability up to 40 uM measured at 24 to 48 hrs by MTT assay. It is filed as functional, cell-based. As to conditions: time 24-48 hrs.
Data set [6] concerns HCCLM3. As to the kind of experiment: Cytotoxicity against human HCCLM3 cells assessed as reduction in cell viability at 40 uM by MTT assay. As to conditions: time 48.0 hrs. It counts as functional, cell-based.
Data set [7] deals with HCCLM3. The data set can be described thus: Cytotoxicity against human HCCLM3 cells assessed as cell viability up to 40 uM by MTT assay. It counts as functional, cell-based. As to conditions: time 12-48 hrs.
Data set [8] has as its system HCCLM3. As to the kind of experiment: Cytotoxicity against human HCCLM3 cells assessed as reduction in cell viability at 40 uM measured at 48 hrs by MTT assay. It counts as functional, cell-based.
The test system of data set [9] is MHCC97H. As to the kind of experiment: Cytotoxicity against human MHCC97H cells assessed as reduction in cell viability at 40 uM by MTT assay. It is filed as functional, cell-based. As to conditions: time 48.0 hrs.
Data set [10] deals with HCCLM3. As to the kind of experiment: Cytotoxicity against human HCCLM3 cells assessed as reduction in cell viability up to 40 uM measured at 48 hrs by MTT assay. It counts as functional, cell-based.
Data set [11] concerns HCCLM3. As to the kind of experiment: Cytotoxicity against human HCCLM3 cells assessed as cell viability up to 40 uM measured at 12 hrs by MTT assay. It is filed as functional, cell-based.
The subject of data set [12] is MHCC97H. The data set can be described thus: Cytotoxicity against human MHCC97H cells assessed as reduction in cell viability up to 40 uM measured at 48 hrs by MTT assay. It is filed as functional, cell-based.
Data set [13] concerns MHCC97H. As to the kind of experiment: Antitumor activity against human MHCC97H cells xenografted in nude mouse assessed as increase in apoptotic cells at 15 mg/kg, po administered daily for 3 weeks by TUNEL staining based assay. It is filed as functional, organism-based. On the technique in general: Xenograft models place foreign cells or tissue in a host animal.
The subject of data set [14] is MHCC97H. As to the kind of experiment: Cytotoxicity against human MHCC97H cells assessed as cell viability up to 40 uM measured at 12 hrs by MTT assay. It is filed as functional, cell-based.
In data set [15] the test system is MHCC97H. The data set can be described thus: Cytotoxicity against human MHCC97H cells assessed as cell viability up to 40 uM by MTT assay. It is filed as functional, cell-based. As to conditions: time 12-48 hrs.
Data set [16] has as its system MHCC97H. As to the kind of experiment: Antiproliferative activity against human MHCC97H cells assessed as reduction in intracellular ATP level at 10 uM incubated for 48 hrs by luminometer analysis relative to control. It counts as functional. Details: scale not given: the % may be the effect or the level left.
For data set [17], the system named is MHCC97H. The data set can be described thus: Antitumor activity against human MHCC97H cells xenografted in nude mouse assessed as tumor weight at 5 mg/kg, po administered daily for 3 weeks (reference value: 1.667g). It counts as functional.
The test system of data set [18] is MHCC97H. The data set can be described thus: Antitumor activity against human MHCC97H cells xenografted in nude mouse assessed as tumor growth inhibition at 5 mg/kg, po administered daily for 3 weeks relative to control. It is filed as functional. As to conditions: 504 h, read-out: TGI.
Data set [19] concerns Huh-7. The data set can be described thus: Antiproliferative activity against human Huh-7 cells assessed as reduction in intracellular ATP level at 10 uM incubated for 48 hrs by luminometer analysis relative to control. Details: scale not given: the % may be the effect or the level left. It is filed as functional.
For data set [20], the system named is HCCLM3. As to the kind of experiment: Antiproliferative activity against human HCCLM3 cells assessed as reduction in intracellular ATP level at 10 uM incubated for 48 hrs by luminometer analysis relative to control. It is filed as functional. Further details: scale not given: the % may be the effect or the level left.
The subject of data set [21] is MHCC97H. The data set can be described thus: Antitumor activity against human MHCC97H cells xenografted in nude mouse assessed as tumor growth inhibition at 10 mg/kg, po administered daily for 3 weeks relative to control. It counts as functional. As to conditions: 504 h, read-out: TGI.
Data set [22] relates to MHCC97H. The data set can be described thus: Antitumor activity against human MHCC97H cells xenografted in nude mouse assessed as tumor weight at 10 mg/kg, po administered daily for 3 weeks (reference value: 1.667g). It is filed as functional.
The subject of data set [23] is HepG2. The data set can be described thus: Antiproliferative activity against human HepG2 cells assessed as reduction in intracellular ATP level at 10 uM incubated for 48 hrs by luminometer analysis relative to control. It counts as functional. Details: scale not given: the % may be the effect or the level left.
Data set [24] is described as follows: Toxicity in nude mouse implanted with human MHCC97H cells assessed as body weight at 15 mg/kg, po administered daily for 3 weeks and measured immediately (reference value: 25.05 g). Particulars: in vivo, 504 h. It is filed as organism-based.
Data set [25] in a line: Toxicity in nude mouse implanted with human MHCC97H cells assessed as kidney damage at 5 to 15 mg/kg, po administered daily for 3 weeks by H and E staining based analysis. It counts as organism-based. As to conditions: in vivo, 504 h, dose 5-15 mg/kg.
Data set [26] in a line: Toxicity in nude mouse implanted with human MHCC97H cells assessed as body weight at 5 mg/kg, po administered daily for 3 weeks and measured at day 22 (reference value: 26.38 g). It is filed as organism-based. As to conditions: in vivo, 1032 h, time 43 day.
The nature of data set [27]: Toxicity in nude mouse implanted with human MHCC97H cells assessed as liver damage at 5 to 15 mg/kg, po administered daily for 3 weeks by H and E staining based analysis. Particulars: in vivo, 504 h, dose 5-15 mg/kg. It is filed as organism-based.
Data set [28] in a line: Toxicity in nude mouse implanted with human MHCC97H cells assessed as body weight at 10 mg/kg, po administered daily for 3 weeks and measured at day 22 (reference value: 26.38 g). It is filed as organism-based. Particulars: in vivo, 1032 h, time 43 day.
Data set [29] relates to HepG2. As to the kind of experiment: Cytotoxicity against human HepG2 cells assessed as inhibition of cell proliferation incubated for 48 hrs by MTT assay. It is filed as functional, cell-based. As to conditions: HepG2, 48 h.
A short description of data set [30]: Toxicity in nude mouse implanted with human MHCC97H cells assessed as spleen damage at 5 to 15 mg/kg, po administered daily for 3 weeks by H and E staining based analysis. It is filed as organism-based. Particulars: in vivo, 504 h, dose 5-15 mg/kg.
In data set [31] the test system is HCCLM3. The data set can be described thus: Cytotoxicity against human HCCLM3 cells assessed as inhibition of cell proliferation incubated for 48 hrs by MTT assay. It is filed as functional, cell-based. Particulars: HCCLM3, 48 h.
Data set [32] is described as follows: Toxicity in nude mouse implanted with human MHCC97H cells assessed as body weight at 10 mg/kg, po administered daily for 3 weeks and measured immediately (reference value: 25.05 g). Particulars: in vivo, 504 h. It counts as organism-based.
Data set [33] in a line: Toxicity in nude mouse implanted with human MHCC97H cells assessed as body weight at 15 mg/kg, po administered daily for 3 weeks and measured at day 22 (reference value: 26.38 g). It is filed as organism-based. Particulars: in vivo, 1032 h, time 43 day.
In data set [34] the test system is Huh-7. The data set can be described thus: Cytotoxicity against human Huh-7 cells assessed as inhibition of cell proliferation incubated for 48 hrs by MTT assay. It is filed as functional, cell-based. As to conditions: Huh-7, 48 h.
The nature of data set [35]: Toxicity in nude mouse implanted with human MHCC97H cells assessed as heart damage at 5 to 15 mg/kg, po administered daily for 3 weeks by H and E staining based analysis. It is filed as organism-based. Particulars: in vivo, 504 h, dose 5-15 mg/kg.
The nature of data set [36]: Toxicity in nude mouse implanted with human MHCC97H cells assessed as body weight at 5 mg/kg, po administered daily for 3 weeks and measured immediately (reference value: 25.05 g). It is filed as organism-based. Particulars: in vivo, 504 h.
Data set [37] can be described thus: Toxicity in nude mouse implanted with human MHCC97H cells assessed as lung damage at 5 to 15 mg/kg, po administered daily for 3 weeks by H and E staining based analysis. As to conditions: in vivo, 504 h, dose 5-15 mg/kg. It counts as organism-based.
Data set [38] has as its system MHCC97H. As to the kind of experiment: Cytotoxicity against human MHCC97H cells assessed as inhibition of cell proliferation incubated for 48 hrs by MTT assay. It is filed as functional, cell-based.

Active and inactive are the calls of the source. No cut-off for these calls is given here. Bounds are passed on as bounds.

Take `CC[C@@H](C)[C@H]1NC(=O)[C@@H]2CCCN2C(=O)[C@@H](CC(C)C)NC(=O)[C@H](CO)NC(=O)[C@@H](CC(C)C)NC(=O)[C@H](C(C)C)NC(=O)[C@H](CC(C)C)NC(=O)[C@H](CC(C)C)NC(=O)[C@H](CC(C)C)NC1=O`: the Activity result in the data set with HCCLM3 [1] is “Dose-dependent-effect”; with MHCC97H [3], “Dose-dependent-effect”; in the data set on HCCLM3 [6], “Time-dependent-effect”; with HCCLM3 [7] it was “Time-dependent-effect”; in the data set with MHCC97H [9], “Time-dependent-effect”; in the data set with MHCC97H [15] it was “Time-dependent-effect”. For the same compound, the result in the data set with HCCLM3 [2], in the data set with MHCC97H [4], in the data set on MHCC97H [5], with HCCLM3 [8], with HCCLM3 [10] and in the data set with HCCLM3 [11] was Active. Also, the result with MHCC97H [12], with MHCC97H [13] and in the data set on MHCC97H [14] was Active.
Consider `CC[C@H](C)[C@@H]1NC(=O)[C@@H]2CCCN2C(=O)[C@H](CC(C)C)NC(=O)[C@H](COC(C)(C)C)NC(=O)[C@H](CC(C)C)NC(=O)[C@H](C(C)C)NC(=O)[C@H](CC(C)C)NC(=O)[C@H](CC(C)C)NC(=O)[C@H](CC(C)C)NC1=O`, for which the Activity in the data set on MHCC97H [16] was 87.8%; in the data set with MHCC97H [17] it was 0.052 g; in the data set on Huh-7 [19] it was 81.8%; in the data set with HCCLM3 [20], 99.9%; with MHCC97H [22] it was 0.262 g; in the data set with HepG2 [23], 41.1%. Also, the inhibition in vivo at 5 mg/kg in the data set on MHCC97H [18] was found to be 68.9%. In the data set with MHCC97H [21], the inhibition in vivo at 10 mg/kg came to 84.3%.
Take `CC[C@H](C)[C@@H]1NC(=O)[C@@H]2CCCN2C(=O)[C@H](CC(C)C)NC(=O)[C@H](CO)NC(=O)[C@H](CC(C)C)NC(=O)[C@H](C(C)C)NC(=O)[C@H](CC(C)C)NC(=O)[C@H](CC(C)C)NC(=O)[C@H](CC(C)C)NC1=O`: the Activity in data set [24] is on record as 24.9 g; in data set [25], “Non-toxic”; in data set [26], 26.38 g; in data set [27] it was “Non-toxic”; in data set [28] it was 26.3 g; in data set [30], “Non-toxic”. For the same compound, the Activity in data set [32] is 25 g; in data set [33], 26.3 g; in data set [35] it was “Non-toxic”; in data set [36], 25.43 g; in data set [37] it was “Non-toxic”. Besides, the IC50 in the data set with HepG2 [29] is over 100 µM; in the data set with HCCLM3 [31], 35.7 µM; with Huh-7 [34] it was over 100 µM; in the data set on MHCC97H [38] it was 33.3 µM.

By IC50 is commonly meant the concentration needed to halve the response being measured.
